Earlier results, collected in patent publication US20250057810A1, “AQUEOUS MELATONIN FORMULATION” (AGB-Pharma AB, priority 2021, published 2025).

Conditions: in vivo

## COc1ccc2[nH]cc(CCNC(C)=O)c2c1 [melatonin, N-acetyl-5-methoxytryptamine]
  blood levels returning to normal daytime levels after administration: 6 to 8 h
